Test results from PubChem BioAssay AID1963843 (Molecular Pharmacology Branch, DTP, NCI, 2024).

Tested on: 616215-338-R-J1-PDC complex spheroid viability
Assay: Anticancer human tumor 616215-338-R-J1-PDC patient-derived colon adenocarcinoma cell line growth inhibition [POLQ]
Details: for IC50: curve of first compound; for viability, T/C: stronger effect = lower value; active means viability on the fitted dose curve at most 10% of control; inactive means the rest
Procedure, shortened: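 Growth inhibition in 3D: complex spheroids (tumor PDC, HUVEC, MSC) treated with POLQ inhibitor combinations; where Cmax unknown, highest tested concentration 10 microM, except SN-38 at 1 microM.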

[1] = second compound 0.0316 µM, first compound 0.00316 µM
[2] = second compound 0.0316 µM, first compound 0.01 µM
[3] = second compound 0.0316 µM, first compound 0.0316 µM
[4] = second compound 0.0316 µM, first compound 0.1 µM
[5] = second compound 0.0316 µM, first compound 0.316 µM
[6] = second compound 0.0316 µM, first compound 1 µM
[7] = second compound 0.1 µM, first compound 0.00316 µM
[8] = second compound 0.1 µM, first compound 0.01 µM
[9] = second compound 0.1 µM, first compound 0.0316 µM
[10] = second compound 0.1 µM, first compound 0.1 µM
[11] = second compound 0.1 µM, first compound 0.316 µM
[12] = second compound 0.1 µM, first compound 1 µM
[13] = second compound 0.316 µM, first compound 0.00316 µM
[14] = second compound 0.316 µM, first compound 0.01 µM
[15] = second compound 0.316 µM, first compound 0.0316 µM
[16] = second compound 0.316 µM, first compound 0.1 µM
[17] = second compound 0.316 µM, first compound 0.316 µM
[18] = second compound 0.316 µM, first compound 1 µM
[19] = second compound 1 µM, first compound 0.00316 µM
[20] = second compound 1 µM, first compound 0.01 µM
[21] = second compound 1 µM, first compound 0.0316 µM
[22] = second compound 1 µM, first compound 0.1 µM
[23] = second compound 1 µM, first compound 0.316 µM
[24] = second compound 1 µM, first compound 1 µM
[25] = second compound 3.16 µM, first compound 0.00316 µM
[26] = second compound 3.16 µM, first compound 0.01 µM
[27] = second compound 3.16 µM, first compound 0.0316 µM
[28] = second compound 3.16 µM, first compound 0.1 µM
[29] = second compound 3.16 µM, first compound 0.316 µM
[30] = second compound 3.16 µM, first compound 1 µM
[31] = second compound 10 µM, first compound 0.00316 µM
[32] = second compound 10 µM, first compound 0.01 µM
[33] = second compound 10 µM, first compound 0.0316 µM
[34] = second compound 10 µM, first compound 0.1 µM
[35] = second compound 10 µM, first compound 0.316 µM
[36] = second compound 10 µM, first compound 1 µM
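Further: spheroids exposed to compounds for one week before readout.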
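Wherever viability, T/C is given: percent viability relative to DMSO vehicle wells taken as 100%.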

C=CCn1c(=O)c2cnc(Nc3ccc(N4CCN(C)CC4)cc3)nc2n1-c1cccc(C(C)(C)O)n1 + COC1C(OC(N)=O)C(O)C(Oc2ccc3c(O)c(NC(=O)c4ccc(O)c(CC=C(C)C)c4)c(=O)oc3c2C)OC1(C)C
> 1000 nM: IC50 (second compound 0.0316 µM) | IC50 (second compound 0.1 µM) | IC50 (second compound 0.316 µM) | IC50 (second compound 1 µM) | IC50 (second compound 3.16 µM) | IC50 (second compound 10 µM)
inactive: viability, T/C [1] 102% | viability, T/C [2] 97.8% | viability, T/C [3] 97.2% | viability, T/C [4] 113% | viability, T/C [5] 97.8% | viability, T/C [6] 91.8% | viability, T/C [7] 105% | viability, T/C [8] 101% | viability, T/C [9] 89.2% | viability, T/C [10] 103% | viability, T/C [11] 95.3% | viability, T/C [12] 55.8% | viability, T/C [13] 94.3% | viability, T/C [14] 106% | viability, T/C [15] 101% | viability, T/C [16] 97.8% | viability, T/C [17] 95.2% | viability, T/C [18] 59.4% | viability, T/C [19] 105% | viability, T/C [20] 94.5% | viability, T/C [21] 101% | viability, T/C [22] 103% | viability, T/C [23] 90.7% | viability, T/C [24] 61.5% | viability, T/C [25] 93.8% | viability, T/C [26] 104% | viability, T/C [27] 100% | viability, T/C [28] 98.2% | viability, T/C [29] 93.9% | viability, T/C [30] 61.4% | viability, T/C [31] 105% | viability, T/C [32] 100% | viability, T/C [33] 98.3% | viability, T/C [34] 103% | viability, T/C [35] 87.7% | viability, T/C [36] 67.3%

CCc1c2c(nc3ccc(O)cc13)-c1cc3c(c(=O)n1C2)COC(=O)[C@]3(O)CC + COC1C(OC(N)=O)C(O)C(Oc2ccc3c(O)c(NC(=O)c4ccc(O)c(CC=C(C)C)c4)c(=O)oc3c2C)OC1(C)C
93.7 nM: IC50 (second compound 0.0316 µM)
92.6 nM: IC50 (second compound 0.316 µM)
30.7 nM: IC50 (second compound 10 µM)
72.1 nM: IC50 (second compound 1 µM)
inactive: viability, T/C [1] 110% | viability, T/C [2] 87.6% | viability, T/C [3] 70.6% | viability, T/C [4] 49.2% | viability, T/C [5] 30.4% | viability, T/C [6] 20.2% | viability, T/C [7] 103% | viability, T/C [8] 95.4% | viability, T/C [9] 73.5% | viability, T/C [10] 45.8% | viability, T/C [11] 30.1% | viability, T/C [12] 19.2% | viability, T/C [13] 107% | viability, T/C [14] 95.7% | viability, T/C [15] 67.8% | viability, T/C [16] 50% | viability, T/C [17] 30.8% | viability, T/C [18] 18.5% | viability, T/C [19] 103% | viability, T/C [20] 81.3% | viability, T/C [21] 60.7% | viability, T/C [22] 47.9% | viability, T/C [23] 28.9% | viability, T/C [24] 19.6% | viability, T/C [25] 106% | viability, T/C [26] 87.2% | viability, T/C [27] 59.7% | viability, T/C [28] 35.1% | viability, T/C [29] 24.1% | viability, T/C [30] 20.6% | viability, T/C [31] 86.7% | viability, T/C [32] 65.5% | viability, T/C [33] 53.7% | viability, T/C [34] 32.5% | viability, T/C [35] 21.7% | viability, T/C [36] 21.1%
49.3 nM: IC50 (second compound 3.16 µM)
87.2 nM: IC50 (second compound 0.1 µM)

COc1cccc(OCCCN)c1-c1cc(Nc2cnc(C#N)cn2)n[nH]1 + COC1C(OC(N)=O)C(O)C(Oc2ccc3c(O)c(NC(=O)c4ccc(O)c(CC=C(C)C)c4)c(=O)oc3c2C)OC1(C)C
> 1000 nM: IC50 (second compound 0.0316 µM) | IC50 (second compound 0.1 µM) | IC50 (second compound 0.316 µM) | IC50 (second compound 1 µM) | IC50 (second compound 3.16 µM)
866 nM: IC50 (second compound 10 µM)
inactive: viability, T/C [1] 95.7% | viability, T/C [2] 109% | viability, T/C [3] 94.8% | viability, T/C [4] 76.1% | viability, T/C [5] 69.3% | viability, T/C [6] 61% | viability, T/C [7] 98.6% | viability, T/C [8] 99.3% | viability, T/C [9] 97.8% | viability, T/C [10] 78.8% | viability, T/C [11] 65.1% | viability, T/C [12] 51.7% | viability, T/C [13] 100% | viability, T/C [14] 106% | viability, T/C [15] 85.7% | viability, T/C [16] 87.4% | viability, T/C [17] 68% | viability, T/C [18] 53.5% | viability, T/C [19] 103% | viability, T/C [20] 101% | viability, T/C [21] 89.2% | viability, T/C [22] 75.3% | viability, T/C [23] 67.2% | viability, T/C [24] 54.2% | viability, T/C [25] 98.8% | viability, T/C [26] 95.3% | viability, T/C [27] 86.3% | viability, T/C [28] 74.2% | viability, T/C [29] 63.3% | viability, T/C [30] 55.2% | viability, T/C [31] 95.7% | viability, T/C [32] 97% | viability, T/C [33] 88.1% | viability, T/C [34] 79.8% | viability, T/C [35] 64.4% | viability, T/C [36] 47.9%
